# Data taken from patent publication US10501552B2, “Multivalent molecules comprising DR5-binding domains” (MacroGenics, Inc., priority 2015, dated 2019).
# Assays:
# [1] = cited from earlier work
# [2] = tested on: SKBR3; assay: […]-GLO cell viability assay with vorinostat; assay type: cell-based, human; conditions: SKBR3 (Breast); 1 μg/ml + 1 μM Vorinostat
# [3] = tested on: DU145; assay: […]-GLO cell viability assay with vorinostat; assay type: cell-based, human; conditions: DU145 (Prostate); 1 μg/ml + 10 μM Vorinostat
# [4] = tested on: PC3; assay: […]-GLO cell viability assay with vorinostat; assay type: cell-based; conditions: PC3 (Prostate); 1 μg/ml + 1 μM Vorinostat
# [5] = tested on: MDA-MB-175VII; assay: […]-GLO cell viability assay with vorinostat; assay type: cell-based; conditions: MDA-MB-175VII (Breast); 1 μg/ml + 1 μM Vorinostat
# [6] = tested on: A549; assay: […]-GLO cell viability assay with vorinostat; assay type: cell-based, human; conditions: A549 (Lung); 1 μg/ml + 10 μM Vorinostat
# [7] = tested on: Calu3; assay: […]-GLO cell viability assay with vorinostat; assay type: cell-based; conditions: Calu3 (Lung); 1 μg/ml + 1 μM Vorinostat
# [8] = tested on: ES2; assay: […]-GLO cell viability assay with vorinostat; assay type: cell-based; conditions: ES2 (Ovary); 1 μg/ml + 10 μM Vorinostat
# [9] = tested on: NCI-N87; assay: […]-GLO cell viability assay with vorinostat; assay type: cell-based; conditions: NCI-N87 (Stomach); 1 μg/ml + 1 μM Vorinostat
# [10] = tested on: MCF7; assay: […]-GLO cell viability assay with vorinostat; assay type: cell-based; conditions: MCF7 (Breast); 1 μg/ml + 10 μM Vorinostat
# [11] = tested on: Hs700T; assay: […]-GLO cell viability assay with vorinostat; assay type: cell-based; conditions: Hs700T (Pancreas); 1 μg/ml + 1 μM Vorinostat
# [12] = tested on: Hs746T; assay: […]-GLO cell viability assay with vorinostat; assay type: cell-based; conditions: Hs746T (Stomach); 1 μg/ml + 10 μM Vorinostat
# [13] = tested on: LNCap; assay: […]-GLO cell viability assay with vorinostat; assay type: cell-based, human; conditions: LNCap (Prostate); 1 μg/ml + 10 μM Vorinostat
# [14] = tested on: MDA-MB-361; assay: […]-GLO cell viability assay with vorinostat; assay type: cell-based; conditions: MDA-MB-361 (Breast); 1 μg/ml + 10 μM Vorinostat
# [15] = tested on: 22RV1; assay: […]-GLO cell viability assay with vorinostat; assay type: cell-based; conditions: 22RV1 (Prostate); 1 μg/ml + 10 μM Vorinostat
# [16] = tested on: BT474; assay: […]-GLO cell viability assay with vorinostat; assay type: cell-based; conditions: BT474 (Breast); 1 μg/ml + 10 μM Vorinostat
# [17] = tested on: HPAFII; assay: […]-GLO cell viability assay with vorinostat; assay type: cell-based; conditions: HPAFII (Pancreas); 1 μg/ml + 10 μM Vorinostat
# [18] = tested on: SKOV3; assay: […]-GLO cell viability assay with vorinostat; assay type: cell-based; conditions: SKOV3 (Ovary); 1 μg/ml + 1 μM Vorinostat
# [19] = tested on: 786O; assay: […]-GLO cell viability assay with vorinostat; assay type: cell-based; conditions: 786O (Kidney); 1 μg/ml + 1 μM Vorinostat
# [20] = tested on: COLO205; assay: […]-GLO cell viability assay with vorinostat; assay type: cell-based; conditions: for Average % Ctrl: one day
# Procedure: For the first study COLO205 cells were plated at 2×10^4 cells/well (in 96-well plates), and incubated overnight in F12/DMEM media supplemented with 10% FBS. […] Cell viability was determined using Promega […]-GLO® Luminescent Cell Viability Assay (Cat # G5430) essentially as described in the manufacturer's instructions to assay the amount of ATP present, which is a measure of the number of viable cells in the culture. Briefly, an […]-GLO® Reagent was added to the wells and mixed for two minutes to induce lysis and the luminescence was read in a in PerkinElmer EnVision multilabel plate reader.
# Cell viability of cells treated with the test articles is normalized to the corresponding negative control (medium±vorinostat) which is set to 100% and reported in Table 12 as % of control for each test agent alone or % control for each test agent in combination with vorinostat. % of control values less than 100% indicate a reduction in viability and reflect the cytotoxicity of the test article alone or in combination with vorinostat.
# The Net Gain (Average % Growth Inhibition)=% Medium Ctrl (10% FBS)−% Medium Ctrl (1/10 μM vorinostat), and represents increased cytotoxicity of the test article in combination with vorinostat over cells treated with vorinostat alone.
# [21] = tested on: AsPC1; assay: […]-GLO cell viability assay with vorinostat; assay type: cell-based; conditions: AsPC1 (Pancreas); 1 μg/ml + 1 μM Vorinostat
# [22] = target: histidine tagged TRAIL (Homo sapiens, UniProt P50591); assay: binding to TRAIL-His coat; conditions: 2 μg/mL biotinylated; 1 μg/mL TRAIL-His coat
# Procedure: The amount of immobilized biotinylated antibody was assessed.
# [23] = a few patients; higher doses (20 mg per kg); cited from earlier work
# [24] = tested on: engrafted breast cancer cells; conditions: cited from earlier work
# [25] = tested on: astrocytoma and leukemia cells; conditions: cited from earlier work
# [26] = target: cynomolgus monkey DR5 (His-tagged); assay: Biacore analysis of binding kinetics; set-up: ka / kd: unit not given here; conditions: tested as DR5×CD3 mAb 2 diabody
# Procedure: Bispecific DR5×CD3 diabodies were incubated with His-tagged DR5 and the kinetics of binding was determined via Biacore analysis. […] FIG. 6, Panels A-D show the results for human DR5. FIG. 6, Panels E-H show the results for cynomolgus monkey DR5.
# histidine tagged TRAIL, sequence (P50591 114-281 limits assumed): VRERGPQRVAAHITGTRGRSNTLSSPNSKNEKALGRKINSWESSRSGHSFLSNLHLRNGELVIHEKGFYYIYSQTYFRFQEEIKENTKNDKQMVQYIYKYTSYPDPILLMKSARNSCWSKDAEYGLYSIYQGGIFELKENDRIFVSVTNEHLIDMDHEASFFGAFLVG
substance,measurement,setting,value
soluble TRAIL: soluble TRAIL preparations,in vivo half-life,[1],approximately 30 minutes
R&D TRAIL/His: His-tagged TRAIL (R&D systems) used as a positive control [reference compound],Net Gain (Average % Growth Inhibition),[2],43.10%
same,Net Gain (Average % Growth Inhibition),[3],4.57%
same,Net Gain (Average % Growth Inhibition),[4],12.49%
same,Net Gain (Average % Growth Inhibition),[5],24.17%
same,Net Gain (Average % Growth Inhibition),[6],26.71%
same,Net Gain (Average % Growth Inhibition),[7],9.96%
same,Net Gain (Average % Growth Inhibition),[8],79.12%
same,Net Gain (Average % Growth Inhibition),[9],35.97%
same,Net Gain (Average % Growth Inhibition),[10],0.79%
same,Net Gain (Average % Growth Inhibition),[11],15.83%
same,Net Gain (Average % Growth Inhibition),[12],31.81%
same,Net Gain (Average % Growth Inhibition),[13],28.73%
same,Net Gain (Average % Growth Inhibition),[14],64.85%
same,Net Gain (Average % Growth Inhibition),[15],8.91%
same,Net Gain (Average % Growth Inhibition),[16],50.24%
same,Net Gain (Average % Growth Inhibition),[17],46.71%
same,Net Gain (Average % Growth Inhibition),[18],33.93%
same,Net Gain (Average % Growth Inhibition),[19],31.16%
same,Average % Ctrl,"[20]; Vorinostat 0 μM, % Medium Ctrl (10% FBS), 10 ng/ml tetravalent molecule or 1 μg/ml DR5 mAb",68.7%
same,Net Gain (Average % Growth Inhibition),[20]; Vorinostat 0.1 μM,15%
same,Average % Ctrl,"[20]; Vorinostat 0.1 μM, normalized to medium + vorinostat",54.1%
same,Net Gain (Average % Growth Inhibition),[20]; Vorinostat 1 μM,24%
same,Average % Ctrl,"[20]; Vorinostat 1 μM, normalized to medium + vorinostat",44.8%
same,Net Gain (Average % Growth Inhibition),[21],11.86%
"DR5-Fc fusion: human DR5-Fc fusion protein, biotinylated, tested on TRAIL-His coat [reference compound]",amount of immobilized biotinylated antibody,[22],0.288
lexatumummab: anti-DR5 agonist antibody from Human Genome Sciences,hepatotoxicity,[23],"Hepatotoxicity with increased serum alanine aminotransferase, aspartate aminotransferase and bilirubin"
TRA-8/CS-1008: humanized anti-DR5 antibody (Daiichi Sankyo),antitumor activity in vivo,[24],high antitumor activity
same,antitumor activity in vitro,[25],high antitumor activity
"DR5 mAb 4: conatumumab, known anti-human DR5 antibody; VL SEQ ID NO:62, VH SEQ ID NO:66",Kd,[26],16.4 nM
same,ka,[26],2.5 × 10^6
same,kd,[26],4.1 × 10^−2
"DR5 mAb 3: drozitumab, known anti-human DR5 antibody; VL SEQ ID NO:54, VH SEQ ID NO:58",Kd,[26],13.3 nM
same,ka,[26],3.3 × 10^6
same,kd,[26],4.4 × 10^−2
